Test results as given in the NIST ThermoML archive (doi:10.1016/j.fluid.2016.01.013).

Assay: xn = mol fraction of the nth substance listed
Settings: for kinematic viscosity: Liquid, Surface laser light scattering (SLLS)

C=C(F)C(F)(F)F [2,3,3,3-tetrafluoro-1-propene] + FCC(F)(F)F
Settings | kinematic viscosity [m2/s] | surface tension liquid-gas [mN/m]
293.15 K, x2 = 0.807 | 1.62e-07 | 8.25
293.2 K, x2 = 0.6018 | 1.61e-07 | 7.8
293.22 K, x2 = 0.3196 | 1.49e-07 | 7.38
303.13 K, x2 = 0.6018 | 1.43e-07 | 6.59
303.15 K, x2 = 0.807 | 1.47e-07 | 6.99
303.21 K, x2 = 0.3196 | 1.35e-07 | 6.14
313.12 K, x2 = 0.3196 | 1.25e-07 | 4.93
313.15 K, x2 = 0.6018 | 1.29e-07 | 5.41
323.1 K, x2 = 0.3196 | 1.15e-07 | 3.95
323.15 K, x2 = 0.807 | 1.26e-07 | 4.55
323.16 K, x2 = 0.6018 | 1.22e-07 | 4.24
333.12 K, x2 = 0.6018 | 1.12e-07 | 3.15
333.15 K, x2 = 0.807 | 1.13e-07 | 3.41
333.16 K, x2 = 0.3196 | 1.07e-07 | 2.87
343.14 K, x2 = 0.807 | 1.04e-07 | 2.39
343.16 K, x2 = 0.6018 | 1e-07 | 2.11
343.19 K, x2 = 0.3196 | 9.77e-08 | 1.88
353.1 K, x2 = 0.807 | 9.22e-08 | 1.31
353.16 K, x2 = 0.3196 | 8.7e-08 | 1
353.19 K, x2 = 0.6018 | 8.9e-08 | 1.17
358.15 K, x2 = 0.3196 | 8.36e-08 | 0.6
363.16 K, x2 = 0.807 | 8.21e-08 | 0.53
363.19 K, x2 = 0.6018 | 7.95e-08 | 0.37

F/C=C/C(F)(F)F [trans-1,3,3,3-tetrafluoropropene] + FCC(F)(F)F
x2 = 0.4446
Settings | kinematic viscosity [m2/s] | surface tension liquid-gas [mN/m]
293.1 K | 1.78e-07 | 8.89
303.16 K | 1.62e-07 | 7.58
313.12 K | 1.45e-07 | 6.34
323.11 K | 1.3e-07 | 5.16
333.14 K | 1.21e-07 | 3.98
343.14 K | 1.12e-07 | 2.92
353.1 K | 1.02e-07 | 1.92
363.1 K | 9e-08 | 1.01
369.15 K | 8.63e-08 | 0.53
